Biological target: T1, 5-HT 1B receptors (Homo sapiens, UniProt P28222)
T1 construct: expressed in transfected cells; host or cells: CHO cells (homogenised in Tris buffer)
Test: 5-HT 1B and 5-HT 1D receptor binding ([3H]-5-HT displacement, CHO cell homogenates)
Conditions: CHO cells expressing receptor, [3H]-5-HT 4 nM, Tris Mg HCl buffer pH 7.7, 37° C., 45 minutes, pKi calculated from IC50; for Ki: read-out: pKi values at 5-HT 1D beta receptors (converted)
Method: CHO cells expressing 5-HT 1D receptors (0.563×10^8 cells/ml) were homogenised in Tris buffer and stored in 1 ml aliquots. CHO cells expressing 5-HT 1B receptors (4×10^7 cells/ml) were homogenised in Tris buffer and stored in 1.5 ml aliquots. 0.4 ml of a cell suspension was incubated with [^3 H-5-HT (4 nM) in Tris Mg HCl buffer (pH 7.7) and test drug, at 37° C. for 45 minutes. Each test drug was tested at 10 concentrations (0.01 mM to 0.3 nM final concentration), with non-specific binding defined using 0.01 mM 5-HT. The total assay volume was 0.5 ml. Incubation was stopped by rapid filtration using a Packard Filtermate (filters pre-soaked in 0.3% polyethylenimine) and radioactivity measured by Topcount scintillation counting. pKi values were calculated from the IC50 generated by an iterative least squares curve fitting programme.

T1 sequence (P28222 whole entry): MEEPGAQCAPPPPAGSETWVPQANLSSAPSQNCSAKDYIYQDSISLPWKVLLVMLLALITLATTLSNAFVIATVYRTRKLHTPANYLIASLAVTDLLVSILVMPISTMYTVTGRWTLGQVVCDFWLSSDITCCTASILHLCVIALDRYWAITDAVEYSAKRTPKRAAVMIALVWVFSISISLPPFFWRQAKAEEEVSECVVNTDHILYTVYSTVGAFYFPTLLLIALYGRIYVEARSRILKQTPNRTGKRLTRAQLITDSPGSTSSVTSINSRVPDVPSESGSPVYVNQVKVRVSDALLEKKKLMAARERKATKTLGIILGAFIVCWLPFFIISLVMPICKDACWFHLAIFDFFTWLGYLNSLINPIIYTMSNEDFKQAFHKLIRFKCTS

In the case of `CN1CCC2(CC1)COc1cc3c(cc12)N(C(=O)c1ccc(-c2ccc(N4CCCC4=O)cc2Cl)cc1)CC3` [Example 14], the Ki is reported as under 10 nM.
Work on `CC(=O)Nc1ccc(-c2ccc(C(=O)N3CCc4cc5c(cc43)C3(CCN(C)CC3)CO5)cc2)c(C)c1` [Example 4, 5-(4'-Acetamido-2'-methylbiphenyl-4-carbonyl)-1'-methyl-2,3,6,7-tetrahydrospiro[furo[2,3-f]indole-3,4'-piperidine]] yielded a Ki of under 10 nM.
Compound `Cc1cc(N2CCNC2=O)ccc1-c1ccc(C(=O)N2CCc3cc4c(cc32)C2(CCN(C)CC2)CO4)cc1` [Example 7] has a Ki of under 10 nM.
`Cc1cc(N2CCOC2=O)ccc1-c1ccc(C(=O)N2CCc3cc4c(cc32)C2(CCN(C)CC2)CO4)cc1` [Example 3, 5-[4'-(4,5-Dihydro-2-oxooxazol-3-yl)-2'-methylbiphenyl-4-carbonyl]-1'-methyl-2,3,6,7-tetrahydrospiro[furo[2,3-f]indole-3,4'-piperidine]] showed a Ki of under 10 nM.
`Cc1cc(N2CCC(C)C2=O)ccc1-c1ccc(C(=O)N2CCc3cc4c(cc32)C2(CCN(C)CC2)CO4)cc1` (stereo not drawn) [Example 9] was tested, and the Ki was under 10 nM.
`C=CCN1CCC2(CC1)COc1cc3c(cc12)N(C(=O)c1ccc(-c2ccc(N4CCCC4=O)cc2C)cc1)CC3` [Example 24, 1'-Allyl-5-[2'-methyl-4'-(2-oxopyrrolidin-1-yl)biphenyl-4-carbonyl]-2,3,6,7-tetrahydrospiro[furo[2,3-f]indole-3,4'-piperidine]] showed a Ki of under 10 nM.
In the case of `Cc1cc(N2CCCC2=O)ccc1-c1ccc(C(=O)C2=C3CC4=C(C=C3N=C2)OCC42CCN(C)CC2)cc1` [Example 33, 2,3-Dihydro-1'-methyl-5-[2'-methyl-4'-(2-oxopyrrolidin-1-yl)biphenyl-4-carbonyl]spiro[furo[3,2-f]indole3,4'-piperidine]], the Ki is reported as under 10 nM.
`Cc1cc(N2CCCC2=O)ccc1-c1ccc(C(=O)N2CCc3cc4c(cc32)C2(CO4)C[C@@H](C)N(C)[C@@H](C)C2)cc1` (stereo partly drawn) [Example 28, cis-2',6'-dimethyl isomer of 5-[2'-Methyl-4'-(2-oxopyrrolidin-1-yl)biphenyl-4-carbonyl]-2,3,6,7-tetrahydro-1',2',6'-trimethylspiro[furo[2,3-f]indole-3,4'-piperidine]] was tested, and the “pKi values at 5-HT 1D beta receptors” value was over 8.0.
In the case of `Cc1cc(N2CCN(C)C2=O)ccc1-c1ccc(C(=O)N2CCc3cc4c(cc32)C2(CCN(C)CC2)CO4)cc1` [Example 8], the Ki is reported as under 10 nM.

Reference: patent US6100272A, “Tetracyclic spiro compounds as 5HT1B receptor antagonists” (SmithKline Beecham p.l.c., priority 1996, dated 2000)
